Reference: US20120129928A1, “Chlorine-Free Liquid Microbicide Treatment” (University of Georgia Research Foundation, Inc., priority 2010, published 2012)
Where two headings read alike, the source gives them in different places.

Columns and labels:
various yeast species = test: Effect of levulinic acids plus SDS at 21° C. on various yeast species; assay type: cell-based; conditions: for Yeast counts at min: 1: 1 min; for Yeast counts at min: 2: 2 min; for Yeast counts at min: 5: 5 min; for Yeast counts at min: 10: 10 min; for Yeast counts at min: 20: 20 min; for Yeast counts at min: 30: 30 min; for Yeast counts at min: 60: 60 min
L. monocytogenes = assay type: cell-based, Listeria monocytogenes; conditions: 21° C.
S. enteritidis = test: Reduction of S. enteritidis in water treated with organic acids and SDS; assay type: cell-based, Salmonella enteritidis; conditions: water; for S. enteritidis counts: 21° C.; for Salmonella reduction: contact for 30 minutes
[1] = tested on: spores of Bacillus anthracis Sterne; assay type: cell-based, Bacillus anthracis Sterne (34F2)
S. typhimurium DT 104 = assay type: cell-based, Salmonella typhimurium DT104; conditions: water, 21° C.
[2] = 0 min, listed as 0.5% levulinic acid
[3] = 0 min, listed as 1.0% levulinic acid
[4] = 0 min, listed as 2.0% levulinic acid
[5] = 2 min, listed as 0.5% levulinic acid
[6] = 2 min, listed as 1.0% levulinic acid
[7] = 2 min, listed as 2.0% levulinic acid
[8] = 5 min, listed as 0.5% levulinic acid
[9] = 5 min, listed as 1.0% levulinic acid
[10] = 5 min, listed as 2.0% levulinic acid
[11] = 10 min, listed as 0.5% levulinic acid
[12] = 10 min, listed as 1.0% levulinic acid
[13] = 10 min, listed as 2.0% levulinic acid
[14] = 20 min, listed as 0.5% levulinic acid
[15] = 20 min, listed as 1.0% levulinic acid
[16] = 20 min, listed as 2.0% levulinic acid
[17] = 30 min, listed as 0.5% levulinic acid
[18] = 30 min, listed as 1.0% levulinic acid
[19] = 30 min, listed as 2.0% levulinic acid

CC(=O)CCC(=O)O [levulinic acid]
Yeast counts at min: 1 (various yeast species; Debaryomyces hansenii): 4.8 log CFU/ml
Yeast counts at min: 2 (various yeast species; Debaryomyces hansenii): 4.9 log CFU/ml
Yeast counts at min: 5 (various yeast species; Debaryomyces hansenii): 4.6 log CFU/ml
Yeast counts at min: 10 (various yeast species; Debaryomyces hansenii): 4.4 log CFU/ml
Yeast counts at min: 20 (various yeast species; Debaryomyces hansenii): 4.7 log CFU/ml
Yeast counts at min: 30 (various yeast species; Debaryomyces hansenii): 3.0 log CFU/ml
Yeast counts at min: 60 (various yeast species; Debaryomyces hansenii): 1.3 log CFU/ml
Yeast counts at min: 1 (various yeast species; Geotrichum candidum): 4.4 log CFU/ml
Yeast counts at min: 2 (various yeast species; Geotrichum candidum): 4.4 log CFU/ml
Yeast counts at min: 5 (various yeast species; Geotrichum candidum): 4.3 log CFU/ml
Yeast counts at min: 10 (various yeast species; Geotrichum candidum): 4.1 log CFU/ml
Yeast counts at min: 20 (various yeast species; Geotrichum candidum): 3.8 log CFU/ml
Yeast counts at min: 30 (various yeast species; Geotrichum candidum): 3.4 log CFU/ml
Yeast counts at min: 60 (various yeast species; Geotrichum candidum): 2.0 log CFU/ml
Yeast counts at min: 1 (various yeast species; Saccharomyces cerevisiae): 5.3 log CFU/ml
Yeast counts at min: 2 (various yeast species; Saccharomyces cerevisiae): 5.5 log CFU/ml
Yeast counts at min: 5 (various yeast species; Saccharomyces cerevisiae): 5.4 log CFU/ml
Yeast counts at min: 10 (various yeast species; Saccharomyces cerevisiae): 5.3 log CFU/ml
Yeast counts at min: 20 (various yeast species; Saccharomyces cerevisiae): 5.3 log CFU/ml
Yeast counts at min: 30 (various yeast species; Saccharomyces cerevisiae): 5.5 log CFU/ml
Yeast counts at min: 60 (various yeast species; Saccharomyces cerevisiae): 5.0 log CFU/ml
L. monocytogenes counts (L. monocytogenes; 0 min): 6.9 ± 0.1 log CFU/ml
L. monocytogenes counts (L. monocytogenes; [2]): 6.7 ± 0.2 log CFU/ml
L. monocytogenes counts (L. monocytogenes; [3]): 6.8 ± 0.3 log CFU/ml
L. monocytogenes counts (L. monocytogenes; [4]): 6.8 ± 0.3 log CFU/ml
L. monocytogenes counts (L. monocytogenes; 2 min): 6.9 ± 0.2 log CFU/ml
L. monocytogenes counts (L. monocytogenes; [5]): 6.7 ± 0.1 log CFU/ml
L. monocytogenes counts (L. monocytogenes; [6]): 6.7 ± 0.2 log CFU/ml
L. monocytogenes counts (L. monocytogenes; [7]): 6.8 ± 0.2 log CFU/ml
L. monocytogenes counts (L. monocytogenes; 5 min): 6.9 ± 0.3 log CFU/ml
L. monocytogenes counts (L. monocytogenes; [8]): 6.8 ± 0.3 log CFU/ml
L. monocytogenes counts (L. monocytogenes; [9]): 6.6 ± 0.3 log CFU/ml
L. monocytogenes counts (L. monocytogenes; [10]): 6.9 ± 0.2 log CFU/ml
L. monocytogenes counts (L. monocytogenes; 10 min): 6.9 ± 0.1 log CFU/ml
L. monocytogenes counts (L. monocytogenes; [11]): 6.9 ± 0.2 log CFU/ml
L. monocytogenes counts (L. monocytogenes; [12]): 6.6 ± 0.3 log CFU/ml
L. monocytogenes counts (L. monocytogenes; [13]): 6.7 ± 0.2 log CFU/ml
L. monocytogenes counts (L. monocytogenes; 20 min): 6.9 ± 0.3 log CFU/ml
L. monocytogenes counts (L. monocytogenes; [14]): 6.7 ± 0.2 log CFU/ml
L. monocytogenes counts (L. monocytogenes; [15]): 6.6 ± 0.0 log CFU/ml
L. monocytogenes counts (L. monocytogenes; [16]): 6.9 ± 0.2 log CFU/ml
L. monocytogenes counts (L. monocytogenes; 30 min): 6.8 ± 0.3 log CFU/ml
L. monocytogenes counts (L. monocytogenes; [17]): 6.8 ± 0.2 log CFU/ml
L. monocytogenes counts (L. monocytogenes; [18]): 6.6 ± 0.3 log CFU/ml
L. monocytogenes counts (L. monocytogenes; [19]): 6.8 ± 0.2 log CFU/ml
S. enteritidis counts (S. enteritidis; 0 min, listed as 0.1% levulinic acid): 7.1 log CFU/ml
S. enteritidis counts (S. enteritidis; [2]): 7.1 log CFU/ml
S. enteritidis counts (S. enteritidis; [3]): 6.9 log CFU/ml
S. enteritidis counts (S. enteritidis; [4]): 6.7 log CFU/ml
S. enteritidis counts (S. enteritidis; 0 min, listed as 3.0% levulinic acid): 6.6 log CFU/ml
S. enteritidis counts (S. enteritidis; 2 min, listed as 0.1% levulinic acid): 7.1 log CFU/ml
S. enteritidis counts (S. enteritidis; [5]): 6.8 log CFU/ml
S. enteritidis counts (S. enteritidis; [6]): 6.7 log CFU/ml
S. enteritidis counts (S. enteritidis; [7]): 6.7 log CFU/ml
S. enteritidis counts (S. enteritidis; 2 min, listed as 3.0% levulinic acid): 6.8 log CFU/ml
S. enteritidis counts (S. enteritidis; 5 min, listed as 0.1% levulinic acid): 6.9 log CFU/ml
S. enteritidis counts (S. enteritidis; [8]): 6.9 log CFU/ml
S. enteritidis counts (S. enteritidis; [9]): 6.8 log CFU/ml
S. enteritidis counts (S. enteritidis; [10]): 6.7 log CFU/ml
S. enteritidis counts (S. enteritidis; 5 min, listed as 3.0% levulinic acid): 6.5 log CFU/ml
S. enteritidis counts (S. enteritidis; 10 min, listed as 0.1% levulinic acid): 7.0 log CFU/ml
S. enteritidis counts (S. enteritidis; [11]): 6.9 log CFU/ml
S. enteritidis counts (S. enteritidis; [12]): 6.9 log CFU/ml
S. enteritidis counts (S. enteritidis; [13]): 6.8 log CFU/ml
S. enteritidis counts (S. enteritidis; 10 min, listed as 3.0% levulinic acid): 6.2 log CFU/ml
S. enteritidis counts (S. enteritidis; 20 min, listed as 0.1% levulinic acid): 6.9 log CFU/ml
S. enteritidis counts (S. enteritidis; [14]): 6.6 log CFU/ml
S. enteritidis counts (S. enteritidis; [15]): 6.9 log CFU/ml
S. enteritidis counts (S. enteritidis; [16]): 6.5 log CFU/ml
S. enteritidis counts (S. enteritidis; 20 min, listed as 3.0% levulinic acid): 5.1 log CFU/ml
S. enteritidis counts (S. enteritidis; 30 min, listed as 0.1% levulinic acid): 6.9 log CFU/ml
S. enteritidis counts (S. enteritidis; [17]): 6.7 log CFU/ml
S. enteritidis counts (S. enteritidis; [18]): 6.7 log CFU/ml
S. enteritidis counts (S. enteritidis; [19]): 6.0 log CFU/ml
S. enteritidis counts (S. enteritidis; 30 min, listed as 3.0% levulinic acid): 3.8 log CFU/ml
Salmonella reduction (S. enteritidis; listed as 0.1 to 2.0% by weight levulinic acid): ~1 log CFU/ml
Salmonella reduction (S. enteritidis; listed as 1% by weight levulinic acid): ≤ 1 log CFU/ml
Salmonella reduction (S. enteritidis; listed as 3% levulinic acid): 3.4 log CFU/ml
Salmonella reduction (S. enteritidis; listed as 3.0% levulinic acid): 3.4 log CFU/ml
CFU % recovery (as compared to control flask F) ([1]; Experiment A3, 10 min): 81%
CFU % recovery (as compared to control flask F) ([1]; Experiment A3, 45 min): 55%
CFU % recovery (as compared to control flask F) ([1]; Experiment A3, 90 min): 64%
CFU % recovery (as compared to control flask F) ([1]; Experiment A4 absent heat, RT, 0 min): 89%
CFU % recovery (as compared to control flask F) ([1]; Experiment A4 absent heat, RT, 1 h): 54%
CFU % recovery (as compared to control flask F) ([1]; Experiment A4 absent heat, RT, 2 h): 27%
CFU % recovery (as compared to control flask F) ([1]; Experiment A4 absent heat, RT, 3 h): 30%
CFU % recovery (as compared to control flask F) ([1]; Experiment A4 absent heat, RT, 4 h): 15%
CFU % recovery (as compared to control flask F) ([1]; Experiment A4 with heat, 65° C., 0 min): 70%
CFU % recovery (as compared to control flask F) ([1]; Experiment A4 with heat, 65° C., 1 h): 78%
CFU % recovery (as compared to control flask F) ([1]; Experiment A4 with heat, 65° C., 2 h): 45%
CFU % recovery (as compared to control flask F) ([1]; Experiment A4 with heat, 65° C., 3 h): 33%
CFU % recovery (as compared to control flask F) ([1]; Experiment A4 with heat, 65° C., 4 h): 46%
CFU % recovery (as compared to control flask F) ([1]; Experiment A5 absent heat, RT, 1 h): 80%
CFU % recovery (as compared to control flask F) ([1]; Experiment A5 absent heat, RT, 2 h): 46%
CFU % recovery (as compared to control flask F) ([1]; Experiment A5 absent heat, RT, 3 h): 67%
CFU % recovery (as compared to control flask F) ([1]; Experiment A5 absent heat, RT, 4 h): 37%
CFU % recovery (as compared to control flask F) ([1]; Experiment A5 with heat, 65° C., 0 min): 75%
CFU % recovery (as compared to control flask F) ([1]; Experiment A5 with heat, 65° C., 1 h): 58%
CFU % recovery (as compared to control flask F) ([1]; Experiment A5 with heat, 65° C., 2 h): 34%
CFU % recovery (as compared to control flask F) ([1]; Experiment A5 with heat, 65° C., 3 h): 34%
CFU % recovery (as compared to control flask F) ([1]; Experiment A5 with heat, 65° C., 4 h): 14%
S. typhimurium DT 104 counts (S. typhimurium DT 104; 0 min): 6.8 log CFU/ml
S. typhimurium DT 104 counts (S. typhimurium DT 104; 1 min): 6.7 log CFU/ml
S. typhimurium DT 104 counts (S. typhimurium DT 104; 2 min): 6.6 log CFU/ml
S. typhimurium DT 104 counts (S. typhimurium DT 104; 5 min): 6.5 log CFU/ml
S. typhimurium DT 104 counts (S. typhimurium DT 104; 10 min): 6.7 log CFU/ml
S. typhimurium DT 104 counts (S. typhimurium DT 104; 20 min): 6.6 log CFU/ml
S. typhimurium DT 104 counts (S. typhimurium DT 104; 30 min): 6.4 log CFU/ml
S. typhimurium DT 104 counts (S. typhimurium DT 104; 60 min): 5.9 log CFU/ml
